In patent US10632125B2, “MTH1 inhibitors for treatment of inflammatory and autoimmune conditions” (THOMAS HELLEDAYS STIFTELSE FÖR MEDICINSK FORSKNING, priority 2014, dated 2020):

Target: MTH1 (Homo sapiens, UniProt P36639)
Assay: MTH1 enzymatic assay (malachite green, coupled to pyrophosphatase)
Type: biochemical
Conditions: not given

IC50, < 200 nM:
[2H]C([2H])([2H])Nc1cc(-c2cccc(Cl)c2Cl)nc(N)n1 [Example 421, 6-(2,3-dichlorophenyl)-4-N-(^2H3)methylpyrimidine-2,4-diamine]

Same assay, conditions: dGTP 100 μM, MTH1 6 nM; 96- or 384-well format; read-out: IC50

IC50, < 200 nM:
Cc1c(Cl)cccc1-c1cc(NCCc2ccc(S(=O)(=O)N(C)C)cc2)nc(N)n1 [Example 414, 4-(2-{[2-amino-6-(3-chloro-2-methylphenyl)pyrimidin-4-yl]amino}ethyl)-N,N-dimethylbenzene-1-sulfonamide]
Cc1cccc(-c2cc(NC3(Cc4ccc(Cl)cc4)CC3)nc(N)n2)c1C [Example 417, 4-N-{1-[(4-Chlorophenyl)methyl]cyclopropyl}-6-(2,3-dimethylphenyl)pyrimidine-2,4-diamine]
Cc1c(F)ccc(-c2cc(NCCc3ccc(S(N)(=O)=O)cc3)nc(N)n2)c1C [Example 425, 4-(2-{[2-amino-6-(4-fluoro-2,3-dimethylphenyl)pyrimidin-4-yl]amino}ethyl)benzene-1-sulfonamide]
Cc1ccc(Cl)cc1-c1cc(NCCc2ccc(S(N)(=O)=O)cc2)nc(N)n1 [Example 427, 4-(2-{[2-amino-6-(5-chloro-2-methylphenyl)pyrimidin-4-yl]amino}ethyl)benzene-1-sulfonamide]
Cc1c(-c2cc(NCCc3ccc(S(C)(=O)=O)cc3)nc(N)n2)ccc(Cl)c1Cl [Example 431, 6-(3,4-dichloro-2-methylphenyl)-4-N-[2-(4-methanesulfonylphenyl)ethyl]pyrimidine-2,4-diamine]
Nc1nc(NCCc2ccc(S(N)(=O)=O)cc2)cc(-c2ccc(F)cc2Cl)n1 [Example 433, 4-(2-{[2-amino-6-(2-chloro-4-fluorophenyl)pyrimidin-4-yl]amino}ethyl)benzene-1-sulfonamide]
Cc1cc(-c2cc(NCCc3ccc(S(N)(=O)=O)cc3)nc(N)n2)ccc1F [Example 435, 4-(2-{[2-amino-6-(4-fluoro-3-methylphenyl)pyrimidin-4-yl]amino}ethyl)benzene-1-sulfonamide]
Cc1c(C#N)cccc1-c1cc(NC2CC2)nc(N)n1 [Example 437, 3-[2-amino-6-(cyclopropylamino)pyrimidin-4-yl]-2-methylbenzonitrile]
C#CCNc1cc(-c2cccc(Cl)c2Cl)nc(N)n1 [Example 438, 6-(2,3-dichlorophenyl)-4-N-(prop-2-yn-1-yl)pyrimidine-2,4-diamine]
Cc1cccc(-c2cc(NCCc3c(C)n[nH]c3C)nc(N)n2)c1C [Example 440, 4-N-[2-(3,5-dimethyl-1H-pyrazol-4-yl)ethyl]-6-(2,3-dimethylphenyl)pyrimidine-2,4-diamine]
Cc1cccc(-c2cc(NCCNc3ccc(Cl)nn3)nc(N)n2)c1C [Example 441, 4-N-{2-[(6-chloropyridazin-3-yl)amino]ethyl}-6-(2,3-dimethylphenyl)pyrimidine-2,4-diamine]
Cc1cccc(-c2cc(NCCNc3cc(C#N)ccn3)nc(N)n2)c1C [Example 442, 2-[(2-{[2-amino-6-(2,3-dimethylphenyl)pyrimidin-4-yl]amino}ethyl)amino]pyridine-4-carbonitrile]
Cc1ccc(NCCNc2cc(-c3cccc(C)c3C)nc(N)n2)cc1F [Example 448, 6-(2,3-dimethylphenyl)-4-N-{2-[(3-fluoro-4-methylphenyl)amino]ethyl}pyrimidine-2,4-diamine]
Cc1cccc(-c2cc(NCCNc3ccc(Cl)c(Cl)c3)nc(N)n2)c1C [Example 449, 4-N-{2-[(3,4-dichlorophenyl)amino]ethyl}-6-(2,3-dimethylphenyl)pyrimidine-2,4-diamine]
